Test results reported in article PMC6917776, “Discovery of a chemical probe for PRDM9” (Nature Communications, 2019).
Read-outs that look alike come from different tables or passages of the source.

Legend:
Experiment in all cases: Methyltransferase selectivity assay (SPA)
Format in all cases: biochemical
SUV39H2 = target: T1, SUV39H2 (Homo sapiens, UniProt Q9H5I1)
T1 construct: purchased Structural Genomics Consortium (SGC Toronto) in-house methyltransferase panel
Experimental: (§1) Selectivity against methyltransferases were determined as described previously. Details of the assays are described in the supplementary methods.
(§2) Methyltransferase selectivity assay1
(§3) The effect of chemical probes and negative controls on the methyltransferase activities of protein, DNA and RNA methyltransferases was tested by radiometric assays using 3H-SAM. For proteins such as MLL1 trimeric, MLL3 pentameric, EZH1 (PRC2) pentameric, and EZH2 (PRC2) trimeric complexes, as well as G9a, GLP, SUV39H1, SUV39H2, SUV420H1, SUV420H2, SETD2, SETD8, SETDB1, SETD7, PRMT1, PRMT3, PRMT4, PRMT5/ MEP50 complex, PRMT6, PRMT7, PRMT8, PRMT9, PRDM9, SMYD2, SMYD3, DNMT1, and BCDIN3D the incorporation of a tritium-labeled methyl group into biotinylated substrate was monitored using scintillation proximity assay (SPA). Briefly, a 10 µL reaction containing 3H-SAM and substrate at concentrations close to the apparent Km values for each enzyme (balanced conditions) was prepared. The reactions were quenched with 10 µL of 7.5 M guanidine hydrochloride; 180 µL of 20 mM Tris buffer (pH 8.0) were added, and the mixture was transferred to a 96-well FlashPlate and incubated for 1 h. The counts per minute (CPM) was measured on a TopCount plate reader. The CPM in the absence of compound or enzyme was defined as 100% activity and background (0%), respectively, for each dataset. […]

PRMT4 = target: T2, PRMT4 (Homo sapiens, UniProt Q86X55)
T2 construct: purchased Structural Genomics Consortium (SGC Toronto) in-house methyltransferase panel
T2 sequence (Q86X55 1-608): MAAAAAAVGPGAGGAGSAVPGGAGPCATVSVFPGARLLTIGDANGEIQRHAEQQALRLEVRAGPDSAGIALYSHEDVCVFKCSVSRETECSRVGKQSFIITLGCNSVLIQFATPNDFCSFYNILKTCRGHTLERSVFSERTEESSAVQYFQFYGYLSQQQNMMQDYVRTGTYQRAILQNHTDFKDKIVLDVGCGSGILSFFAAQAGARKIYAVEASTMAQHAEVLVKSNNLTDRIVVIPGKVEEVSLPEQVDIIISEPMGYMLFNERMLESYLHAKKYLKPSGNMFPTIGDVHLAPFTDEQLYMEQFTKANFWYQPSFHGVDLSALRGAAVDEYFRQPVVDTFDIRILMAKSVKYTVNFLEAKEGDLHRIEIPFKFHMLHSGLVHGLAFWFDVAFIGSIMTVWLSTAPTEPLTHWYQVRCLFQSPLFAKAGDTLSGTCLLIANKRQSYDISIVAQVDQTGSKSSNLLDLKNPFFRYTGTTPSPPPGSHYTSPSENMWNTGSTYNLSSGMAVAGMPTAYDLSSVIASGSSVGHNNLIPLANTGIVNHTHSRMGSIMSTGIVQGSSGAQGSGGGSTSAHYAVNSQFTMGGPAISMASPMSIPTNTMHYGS
Experimental: as §1, §2, §3

PRMT3 = target: T3, PRMT3 (Homo sapiens, UniProt O60678)
T3 construct: purchased Structural Genomics Consortium (SGC Toronto) in-house methyltransferase panel
Experimental: as §1, §2, §3

PRMT6 = target: T4, PRMT6 (Homo sapiens, UniProt Q96LA8)
T4 construct: purchased Structural Genomics Consortium (SGC Toronto) in-house methyltransferase panel
Experimental: as §1, §2, §3

SUV420H1 = target: T5, SUV420H1 (Homo sapiens, UniProt Q4FZB7)
T5 construct: purchased Structural Genomics Consortium (SGC Toronto) in-house methyltransferase panel
Experimental: as §1, §2, §3

MLL3 pentameric complex = target: T6, MLL3 pentameric complex (Homo sapiens, UniProt Q8NEZ4)
T6 construct: purchased Structural Genomics Consortium (SGC Toronto) in-house methyltransferase panel
Experimental: as §1, §2, §3

SETD8 = target: T7, SETD8 (Homo sapiens, UniProt Q9NQR1)
T7 construct: purchased Structural Genomics Consortium (SGC Toronto) in-house methyltransferase panel
T7 sequence (Q9NQR1 1-393): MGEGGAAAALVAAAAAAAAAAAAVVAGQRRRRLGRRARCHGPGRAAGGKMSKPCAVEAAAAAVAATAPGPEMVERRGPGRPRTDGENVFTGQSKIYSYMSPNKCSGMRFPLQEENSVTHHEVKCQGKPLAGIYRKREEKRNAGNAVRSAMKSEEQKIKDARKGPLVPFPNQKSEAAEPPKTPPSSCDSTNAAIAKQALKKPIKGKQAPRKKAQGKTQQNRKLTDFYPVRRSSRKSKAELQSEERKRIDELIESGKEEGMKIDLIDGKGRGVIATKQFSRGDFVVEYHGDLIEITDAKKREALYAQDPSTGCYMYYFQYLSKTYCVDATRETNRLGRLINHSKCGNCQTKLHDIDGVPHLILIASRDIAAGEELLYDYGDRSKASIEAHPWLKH
Experimental: as §1, §2, §3

SUV39H1 = target: T8, SUV39H1 (Homo sapiens, UniProt O43463)
T8 construct: purchased Structural Genomics Consortium (SGC Toronto) in-house methyltransferase panel
T8 sequence (O43463 1-412): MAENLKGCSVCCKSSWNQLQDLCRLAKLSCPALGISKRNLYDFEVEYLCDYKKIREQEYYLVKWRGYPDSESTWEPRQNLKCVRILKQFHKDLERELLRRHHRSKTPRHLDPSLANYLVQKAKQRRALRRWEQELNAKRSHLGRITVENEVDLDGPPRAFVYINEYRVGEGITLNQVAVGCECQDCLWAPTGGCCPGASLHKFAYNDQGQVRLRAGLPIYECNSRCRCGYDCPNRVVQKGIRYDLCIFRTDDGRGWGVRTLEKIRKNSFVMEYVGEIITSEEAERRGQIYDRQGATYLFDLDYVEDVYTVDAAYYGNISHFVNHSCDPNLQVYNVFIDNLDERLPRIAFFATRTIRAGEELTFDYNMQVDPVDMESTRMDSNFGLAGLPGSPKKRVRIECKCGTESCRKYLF
Experimental: as §1, §2, §3

[1] = target: T9, EZH2 (PRC2) trimeric complex (Homo sapiens, UniProt Q15910)
T9 construct: purchased Structural Genomics Consortium (SGC Toronto) in-house methyltransferase panel
Experimental: as §1, §2, §3

[2] = 10µM compound, Exp1, Exp2, 10 µM
[3] = 1µM compound, Exp1, Exp2, read-out: Activity %
[4] = 10µM compound, Exp1, Exp2, read-out: Activity %

T9 sequence (Q15910 whole entry): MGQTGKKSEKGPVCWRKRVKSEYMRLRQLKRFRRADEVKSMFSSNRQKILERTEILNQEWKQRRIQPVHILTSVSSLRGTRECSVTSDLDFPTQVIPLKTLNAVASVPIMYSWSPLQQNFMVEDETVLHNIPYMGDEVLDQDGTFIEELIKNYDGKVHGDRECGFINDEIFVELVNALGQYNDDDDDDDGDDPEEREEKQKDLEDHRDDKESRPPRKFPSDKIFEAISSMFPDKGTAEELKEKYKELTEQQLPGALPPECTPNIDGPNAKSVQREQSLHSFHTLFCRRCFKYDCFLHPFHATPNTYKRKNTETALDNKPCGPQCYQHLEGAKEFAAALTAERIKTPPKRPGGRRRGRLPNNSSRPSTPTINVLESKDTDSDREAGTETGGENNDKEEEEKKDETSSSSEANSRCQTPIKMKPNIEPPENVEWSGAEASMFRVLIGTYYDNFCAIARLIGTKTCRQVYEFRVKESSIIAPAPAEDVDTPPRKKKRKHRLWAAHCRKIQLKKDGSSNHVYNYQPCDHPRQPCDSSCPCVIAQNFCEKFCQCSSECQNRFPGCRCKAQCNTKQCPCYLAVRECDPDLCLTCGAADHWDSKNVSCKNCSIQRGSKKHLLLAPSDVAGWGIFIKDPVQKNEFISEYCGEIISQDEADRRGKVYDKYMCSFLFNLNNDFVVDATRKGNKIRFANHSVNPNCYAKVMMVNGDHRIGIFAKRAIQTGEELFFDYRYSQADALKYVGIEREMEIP
T9 sequence (O75530 whole entry partner): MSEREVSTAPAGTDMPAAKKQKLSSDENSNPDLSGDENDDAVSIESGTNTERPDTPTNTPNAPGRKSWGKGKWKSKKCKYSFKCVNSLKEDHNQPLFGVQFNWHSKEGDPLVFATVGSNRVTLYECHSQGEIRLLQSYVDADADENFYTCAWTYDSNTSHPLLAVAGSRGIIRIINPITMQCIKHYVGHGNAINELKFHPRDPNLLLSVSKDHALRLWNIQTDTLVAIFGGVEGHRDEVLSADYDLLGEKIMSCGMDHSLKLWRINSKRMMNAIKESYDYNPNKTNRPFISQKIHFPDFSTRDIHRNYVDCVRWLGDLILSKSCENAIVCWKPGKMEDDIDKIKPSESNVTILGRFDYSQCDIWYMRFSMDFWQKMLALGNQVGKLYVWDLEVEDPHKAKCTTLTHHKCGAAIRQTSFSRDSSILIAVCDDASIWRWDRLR
T9 sequence (Q15022 whole entry partner): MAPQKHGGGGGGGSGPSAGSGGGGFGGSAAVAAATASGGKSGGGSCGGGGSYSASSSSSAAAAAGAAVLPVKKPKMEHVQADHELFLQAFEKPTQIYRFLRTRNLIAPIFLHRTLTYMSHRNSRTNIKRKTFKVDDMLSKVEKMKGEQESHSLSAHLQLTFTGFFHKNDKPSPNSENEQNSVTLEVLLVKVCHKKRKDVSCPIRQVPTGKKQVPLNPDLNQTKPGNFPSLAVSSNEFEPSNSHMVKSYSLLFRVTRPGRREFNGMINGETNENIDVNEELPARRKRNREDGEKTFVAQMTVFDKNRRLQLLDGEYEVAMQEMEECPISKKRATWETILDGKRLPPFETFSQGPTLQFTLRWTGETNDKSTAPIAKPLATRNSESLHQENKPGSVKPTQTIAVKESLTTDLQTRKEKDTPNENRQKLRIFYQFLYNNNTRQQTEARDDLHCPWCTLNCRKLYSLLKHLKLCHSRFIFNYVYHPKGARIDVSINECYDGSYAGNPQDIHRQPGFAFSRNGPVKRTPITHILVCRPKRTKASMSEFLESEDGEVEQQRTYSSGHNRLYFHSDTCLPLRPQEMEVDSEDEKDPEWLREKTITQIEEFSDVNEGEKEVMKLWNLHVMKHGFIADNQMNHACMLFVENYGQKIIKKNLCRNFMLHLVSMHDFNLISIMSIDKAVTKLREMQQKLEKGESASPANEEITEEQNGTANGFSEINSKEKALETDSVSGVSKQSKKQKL
T1 sequence (Q9H5I1 whole entry): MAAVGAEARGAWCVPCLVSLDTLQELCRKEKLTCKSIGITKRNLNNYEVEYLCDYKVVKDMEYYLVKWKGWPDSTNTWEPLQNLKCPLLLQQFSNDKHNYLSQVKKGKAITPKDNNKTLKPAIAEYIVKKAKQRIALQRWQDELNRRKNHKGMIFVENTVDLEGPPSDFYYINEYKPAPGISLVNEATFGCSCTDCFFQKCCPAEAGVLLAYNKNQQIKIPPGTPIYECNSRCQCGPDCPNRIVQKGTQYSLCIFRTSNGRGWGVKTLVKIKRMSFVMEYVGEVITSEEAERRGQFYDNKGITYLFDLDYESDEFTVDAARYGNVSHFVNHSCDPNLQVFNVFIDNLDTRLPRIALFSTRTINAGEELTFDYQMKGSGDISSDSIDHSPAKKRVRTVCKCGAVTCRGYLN
T3 sequence (O60678 whole entry): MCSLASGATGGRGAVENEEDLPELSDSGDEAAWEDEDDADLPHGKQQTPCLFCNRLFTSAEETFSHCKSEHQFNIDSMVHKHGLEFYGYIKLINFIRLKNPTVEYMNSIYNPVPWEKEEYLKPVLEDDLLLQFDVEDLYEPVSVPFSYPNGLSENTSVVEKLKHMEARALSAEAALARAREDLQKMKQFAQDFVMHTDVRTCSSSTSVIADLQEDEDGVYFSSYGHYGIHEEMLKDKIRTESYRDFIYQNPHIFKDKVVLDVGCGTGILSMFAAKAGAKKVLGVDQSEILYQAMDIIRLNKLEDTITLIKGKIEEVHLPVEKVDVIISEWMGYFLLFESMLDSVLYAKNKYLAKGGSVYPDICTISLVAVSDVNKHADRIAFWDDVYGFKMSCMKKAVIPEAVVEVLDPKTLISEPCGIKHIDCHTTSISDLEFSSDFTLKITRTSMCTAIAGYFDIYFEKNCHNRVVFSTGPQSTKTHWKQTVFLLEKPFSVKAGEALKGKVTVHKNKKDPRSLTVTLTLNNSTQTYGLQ
T5 sequence (Q4FZB7 whole entry): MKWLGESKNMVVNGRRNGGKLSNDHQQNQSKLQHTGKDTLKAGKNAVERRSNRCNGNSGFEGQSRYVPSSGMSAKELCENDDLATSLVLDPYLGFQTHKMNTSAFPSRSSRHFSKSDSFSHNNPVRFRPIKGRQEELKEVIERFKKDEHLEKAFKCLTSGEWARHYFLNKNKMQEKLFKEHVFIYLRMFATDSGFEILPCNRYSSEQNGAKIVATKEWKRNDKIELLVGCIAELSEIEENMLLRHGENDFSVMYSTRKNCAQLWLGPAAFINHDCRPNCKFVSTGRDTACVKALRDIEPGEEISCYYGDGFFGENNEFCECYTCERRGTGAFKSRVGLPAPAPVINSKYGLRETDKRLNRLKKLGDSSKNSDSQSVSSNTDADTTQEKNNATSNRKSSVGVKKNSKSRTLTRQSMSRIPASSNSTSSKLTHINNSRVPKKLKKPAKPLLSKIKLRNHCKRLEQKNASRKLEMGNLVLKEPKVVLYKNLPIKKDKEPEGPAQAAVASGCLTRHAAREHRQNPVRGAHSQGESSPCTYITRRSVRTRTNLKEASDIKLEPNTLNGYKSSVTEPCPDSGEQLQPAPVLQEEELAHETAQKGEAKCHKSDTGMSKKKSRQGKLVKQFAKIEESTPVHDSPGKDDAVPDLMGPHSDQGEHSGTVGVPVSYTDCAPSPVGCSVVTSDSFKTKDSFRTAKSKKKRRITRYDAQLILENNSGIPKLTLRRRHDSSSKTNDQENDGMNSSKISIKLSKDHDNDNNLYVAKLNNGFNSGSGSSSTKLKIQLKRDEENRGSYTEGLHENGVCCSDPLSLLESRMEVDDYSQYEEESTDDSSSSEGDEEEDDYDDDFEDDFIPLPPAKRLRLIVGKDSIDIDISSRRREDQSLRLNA
T4 sequence (Q96LA8 whole entry): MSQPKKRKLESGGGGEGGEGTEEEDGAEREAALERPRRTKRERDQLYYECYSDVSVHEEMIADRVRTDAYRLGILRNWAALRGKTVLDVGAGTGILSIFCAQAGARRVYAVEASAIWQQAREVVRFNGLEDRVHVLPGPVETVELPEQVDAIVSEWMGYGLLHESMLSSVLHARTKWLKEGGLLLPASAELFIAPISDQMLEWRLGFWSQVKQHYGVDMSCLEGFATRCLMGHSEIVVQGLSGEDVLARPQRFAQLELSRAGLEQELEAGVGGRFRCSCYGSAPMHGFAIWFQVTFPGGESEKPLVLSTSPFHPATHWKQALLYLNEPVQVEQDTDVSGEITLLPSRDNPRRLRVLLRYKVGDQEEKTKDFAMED

COc1cc(OC)cc(-c2noc(N3CCN(C)C4(CCN(c5ccccc5)CC4)C3)n2)c1 [MRK-740 -NC]
activity at 1 µM (SUV39H2; 1µM compound, Exp1, Exp2): 93% | activity at 10 µM (SUV39H2; 10µM compound, Exp1, Exp2): 86% | Activity % (SUV39H2; [2]): 96% | activity at 1 µM (PRMT4; 1µM compound, Exp1, Exp2): 108% | Activity % (PRMT4; 1µM compound, Exp1, Exp2, 1 µM): 89% | activity at 10 µM (PRMT4; 10µM compound, Exp1, Exp2): 87% | Activity % (PRMT4; [2]): 89% | activity at 1 µM (PRMT3; 1µM compound, Exp1, Exp2): 105% | Activity % (PRMT3; 1µM compound, Exp1, Exp2, 1 µM): 106% | activity at 10 µM (PRMT3; 10µM compound, Exp1, Exp2): 104% | Activity % (PRMT3; [2]): 97% | activity at 1 µM (PRMT6; 1µM compound, Exp1, Exp2): 98% | Activity % (PRMT6; 1µM compound, Exp1, Exp2, 1 µM): 97% | activity at 10 µM (PRMT6; 10µM compound, Exp1, Exp2): 96% | Activity % (PRMT6; [2]): 95% | activity at 1 µM (SUV420H1; 1µM compound, Exp1, Exp2): 103% | Activity % (SUV420H1; 1µM compound, Exp1, Exp2, 1 µM): 105% | activity at 10 µM (SUV420H1; 10µM compound, Exp1, Exp2): 99% | Activity % (SUV420H1; [2]): 95% | activity at 1 µM (MLL3 pentameric complex; 1µM compound, Exp1, Exp2): 108% | Activity % (MLL3 pentameric complex; 1µM compound, Exp1, Exp2, 1 µM): 105% | activity at 10 µM (MLL3 pentameric complex; 10µM compound, Exp1, Exp2): 107% | Activity % (MLL3 pentameric complex; [2]): 95% | activity at 1 µM (SETD8; 1µM compound, Exp1, Exp2): 107% | Activity % (SETD8; 1µM compound, Exp1, Exp2, 1 µM): 95% | activity at 10 µM (SETD8; 10µM compound, Exp1, Exp2): 94% | Activity % (SETD8; [2]): 92% | activity at 1 µM (SUV39H1; 1µM compound, Exp1, Exp2): 100% | Activity % (SUV39H1; 1µM compound, Exp1, Exp2, 1 µM): 104% | activity at 10 µM (SUV39H1; 10µM compound, Exp1, Exp2): 101% | activity at 1 µM ([1]; 1µM compound, Exp1, Exp2): 99% | Activity % ([1]; 1µM compound, Exp1, Exp2, 1 µM): 112% | activity at 10 µM ([1]; 10µM compound, Exp1, Exp2): 100% | Activity % [1, 2]: 95%

COc1cc(OC)cc(-c2noc(N3CCN(C)C4(CCN(c5ccnc(C)c5)CC4)C3)n2)c1 [MRK-740]
Activity % (SUV39H2; 1µM compound, Exp1, Exp2, 1 µM): 89% | activity at 1 µM (SUV39H2; [3]): 92% | Activity % (SUV39H2; [2]): 90% | activity at 10 µM (SUV39H2; [4]): 92% | Activity % (PRMT4; 1µM compound, Exp1, Exp2, 1 µM): 98% | activity at 1 µM (PRMT4; [3]): 101% | Activity % (PRMT4; [2]): 99% | activity at 10 µM (PRMT4; [4]): 96% | Activity % (PRMT3; 1µM compound, Exp1, Exp2, 1 µM): 88% | activity at 1 µM (PRMT3; [3]): 90% | Activity % (PRMT3; [2]): 87% | activity at 10 µM (PRMT3; [4]): 92% | Activity % (PRMT6; 1µM compound, Exp1, Exp2, 1 µM): 94% | activity at 1 µM (PRMT6; [3]): 98% | Activity % (PRMT6; [2]): 93% | activity at 10 µM (PRMT6; [4]): 98% | Activity % (SUV420H1; 1µM compound, Exp1, Exp2, 1 µM): 102% | activity at 1 µM (SUV420H1; [3]): 101% | Activity % (SUV420H1; [2]): 103% | activity at 10 µM (SUV420H1; [4]): 86% | Activity % (MLL3 pentameric complex; 1µM compound, Exp1, Exp2, 1 µM): 95% | activity at 1 µM (MLL3 pentameric complex; [3]): 89% | Activity % (MLL3 pentameric complex; [2]): 86% | activity at 10 µM (MLL3 pentameric complex; [4]): 94% | activity at 1 µM (SETD8; [3]): 99% | activity at 10 µM (SETD8; [4]): 101% | Activity % (SUV39H1; 1µM compound, Exp1, Exp2, 1 µM): 85% | activity at 1 µM (SUV39H1; [3]): 84% | Activity % (SUV39H1; [2]): 80% | activity at 10 µM (SUV39H1; [4]): 84% | Activity % ([1]; 1µM compound, Exp1, Exp2, 1 µM): 104% | activity at 1 µM [1, 3]: 102% | Activity % [1, 2]: 103% | activity at 10 µM [1, 4]: 102%
